Laboratory results reported in patent US20260182582A1, “METHODS AND COMPOSITIONS FOR BIOPROTECTION OF TOMATOES FROM CLAVIBACTER MICHIGANENSIS SUBSP. MICHIGANENSIS” (The Royal Institution for the Advancement of …, priority 2018, published 2026).
Values joined by “and” are separate entries in the source; they are usually repeats but may differ in a detail not shown here. Identical values can stand only once.

System: Cmm
Test: Agar well diffusion assay against Cmm
Format: cell-based, Clavibacter michiganensis subsp. michiganensis
Experimental: In addition, the antibacterial activity of various fractions and the purified antibiotic produced by B. pumilus was assessed via agar well diffusion assay. Cmm was grown as described above and a suspension of 100 μL was evenly spread over fresh NBYA plates using sterile spreader. Wells of 6 mm diameter were carefully made in the agar and 50 μL of the test fraction or antibiotic test sample extracted from B. pumilus was poured into the agar well. Sterilized distilled water served as a control treatment.
The antimicrobial activities of Micrococcin P1 at various concentrations were assessed via agar well diffusion assay. A cell suspension of Cmm was overlaid on NBYA and the plates were allowed to air dry. A 50 μL drop of Micrococcin P1 diluted in various concentrations were applied into agar well.

For Micrococcin P1, the “antibacterial activity against Cmm, zone of inhibition around the well” value (50 μL in 6 mm agar well, NBYA, 28° C., 3 days) was “antimicrobial activity against Cmm”, the “concentration having the most significant effects” value (highest concentration tested) was 5 mg/L and 4.37 μM and the “amount per well needed for growth inhibition zones” value (per well in 50 μL, NBYA, 3 days 28° C.) was ≥ 7.8125 ng. For the same substance, the “dose dependence of antibacterial activities” value (various concentrations, FIG. 7) was “increased proportional to the Micrococcin P1 concentrations”.
